According to patent US10344060B2 (priority 2013, dated 2019):

Legend:
Assay in all cases: cell-based
[1] = target: hNav1.7 (Homo sapiens, UniProt Q15858); conditions: read-out: IC50 (μM) Nav1.7
[2] = target: hNav1.5 (Homo sapiens, UniProt Q14524); conditions: IonWorks Quattro; Table 6; read-out: IC50 (μM) Nav1.5
[3] = target: hNav1.4 (Homo sapiens, UniProt P35499); format: cell-based; conditions: Table 6; for IC50: IonWorks Quattro, read-out: IC50 (μM) Nav1.4; for Nav1.4/Nav1.7: ratio of IonWorks Quattro IC50 values
Chain of hNav1.4 (P35499 whole entry): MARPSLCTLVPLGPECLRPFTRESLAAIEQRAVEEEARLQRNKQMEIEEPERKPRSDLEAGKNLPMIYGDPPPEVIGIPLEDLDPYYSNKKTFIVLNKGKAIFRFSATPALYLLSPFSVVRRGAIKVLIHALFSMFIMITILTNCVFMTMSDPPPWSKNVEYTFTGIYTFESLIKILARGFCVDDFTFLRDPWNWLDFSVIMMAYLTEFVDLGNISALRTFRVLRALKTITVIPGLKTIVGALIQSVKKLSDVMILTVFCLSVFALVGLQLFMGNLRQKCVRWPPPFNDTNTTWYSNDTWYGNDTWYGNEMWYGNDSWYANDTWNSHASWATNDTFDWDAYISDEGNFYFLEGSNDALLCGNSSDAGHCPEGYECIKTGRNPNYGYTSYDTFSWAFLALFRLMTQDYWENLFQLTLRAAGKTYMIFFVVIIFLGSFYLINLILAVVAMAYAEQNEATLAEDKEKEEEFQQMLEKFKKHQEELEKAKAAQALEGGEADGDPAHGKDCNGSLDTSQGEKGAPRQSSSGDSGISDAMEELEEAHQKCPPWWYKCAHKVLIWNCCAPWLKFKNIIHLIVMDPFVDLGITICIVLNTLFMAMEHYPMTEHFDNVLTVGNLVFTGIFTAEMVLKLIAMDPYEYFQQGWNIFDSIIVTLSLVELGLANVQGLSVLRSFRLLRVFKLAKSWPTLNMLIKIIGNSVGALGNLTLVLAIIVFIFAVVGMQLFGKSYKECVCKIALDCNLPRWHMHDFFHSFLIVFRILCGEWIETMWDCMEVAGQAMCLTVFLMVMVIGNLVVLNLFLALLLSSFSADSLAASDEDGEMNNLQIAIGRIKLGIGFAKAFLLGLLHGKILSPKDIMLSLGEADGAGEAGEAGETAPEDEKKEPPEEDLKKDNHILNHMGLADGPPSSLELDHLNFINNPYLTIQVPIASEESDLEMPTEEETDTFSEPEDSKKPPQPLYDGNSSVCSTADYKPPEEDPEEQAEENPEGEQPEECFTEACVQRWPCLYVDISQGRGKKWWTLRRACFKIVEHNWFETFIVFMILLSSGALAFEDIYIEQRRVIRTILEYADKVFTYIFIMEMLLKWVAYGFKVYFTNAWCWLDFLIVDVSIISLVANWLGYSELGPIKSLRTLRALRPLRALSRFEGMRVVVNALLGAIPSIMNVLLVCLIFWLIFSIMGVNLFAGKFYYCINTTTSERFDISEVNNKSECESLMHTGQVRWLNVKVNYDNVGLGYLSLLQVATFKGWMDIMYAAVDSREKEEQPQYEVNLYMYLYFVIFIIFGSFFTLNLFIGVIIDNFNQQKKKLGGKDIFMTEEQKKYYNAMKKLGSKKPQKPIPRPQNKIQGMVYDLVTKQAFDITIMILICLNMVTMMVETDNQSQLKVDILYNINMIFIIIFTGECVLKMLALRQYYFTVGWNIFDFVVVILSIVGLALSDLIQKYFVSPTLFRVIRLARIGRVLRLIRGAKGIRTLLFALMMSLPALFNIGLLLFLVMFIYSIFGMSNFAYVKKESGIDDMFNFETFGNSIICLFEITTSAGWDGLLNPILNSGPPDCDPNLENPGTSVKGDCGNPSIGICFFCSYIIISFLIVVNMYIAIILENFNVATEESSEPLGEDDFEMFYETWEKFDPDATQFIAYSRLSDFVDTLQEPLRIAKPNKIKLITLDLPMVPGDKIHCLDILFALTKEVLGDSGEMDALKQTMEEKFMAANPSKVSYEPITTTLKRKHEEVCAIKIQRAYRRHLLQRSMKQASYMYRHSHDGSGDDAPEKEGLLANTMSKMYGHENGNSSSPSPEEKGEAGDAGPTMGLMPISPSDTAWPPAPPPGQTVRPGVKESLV

[4] = target: hNav1.3 (Homo sapiens, UniProt Q9NY46); conditions: IonWorks Quattro; Table 6; read-out: IC50 (μM) Nav1.3
Chain of hNav1.3 (Q9NY46 whole entry): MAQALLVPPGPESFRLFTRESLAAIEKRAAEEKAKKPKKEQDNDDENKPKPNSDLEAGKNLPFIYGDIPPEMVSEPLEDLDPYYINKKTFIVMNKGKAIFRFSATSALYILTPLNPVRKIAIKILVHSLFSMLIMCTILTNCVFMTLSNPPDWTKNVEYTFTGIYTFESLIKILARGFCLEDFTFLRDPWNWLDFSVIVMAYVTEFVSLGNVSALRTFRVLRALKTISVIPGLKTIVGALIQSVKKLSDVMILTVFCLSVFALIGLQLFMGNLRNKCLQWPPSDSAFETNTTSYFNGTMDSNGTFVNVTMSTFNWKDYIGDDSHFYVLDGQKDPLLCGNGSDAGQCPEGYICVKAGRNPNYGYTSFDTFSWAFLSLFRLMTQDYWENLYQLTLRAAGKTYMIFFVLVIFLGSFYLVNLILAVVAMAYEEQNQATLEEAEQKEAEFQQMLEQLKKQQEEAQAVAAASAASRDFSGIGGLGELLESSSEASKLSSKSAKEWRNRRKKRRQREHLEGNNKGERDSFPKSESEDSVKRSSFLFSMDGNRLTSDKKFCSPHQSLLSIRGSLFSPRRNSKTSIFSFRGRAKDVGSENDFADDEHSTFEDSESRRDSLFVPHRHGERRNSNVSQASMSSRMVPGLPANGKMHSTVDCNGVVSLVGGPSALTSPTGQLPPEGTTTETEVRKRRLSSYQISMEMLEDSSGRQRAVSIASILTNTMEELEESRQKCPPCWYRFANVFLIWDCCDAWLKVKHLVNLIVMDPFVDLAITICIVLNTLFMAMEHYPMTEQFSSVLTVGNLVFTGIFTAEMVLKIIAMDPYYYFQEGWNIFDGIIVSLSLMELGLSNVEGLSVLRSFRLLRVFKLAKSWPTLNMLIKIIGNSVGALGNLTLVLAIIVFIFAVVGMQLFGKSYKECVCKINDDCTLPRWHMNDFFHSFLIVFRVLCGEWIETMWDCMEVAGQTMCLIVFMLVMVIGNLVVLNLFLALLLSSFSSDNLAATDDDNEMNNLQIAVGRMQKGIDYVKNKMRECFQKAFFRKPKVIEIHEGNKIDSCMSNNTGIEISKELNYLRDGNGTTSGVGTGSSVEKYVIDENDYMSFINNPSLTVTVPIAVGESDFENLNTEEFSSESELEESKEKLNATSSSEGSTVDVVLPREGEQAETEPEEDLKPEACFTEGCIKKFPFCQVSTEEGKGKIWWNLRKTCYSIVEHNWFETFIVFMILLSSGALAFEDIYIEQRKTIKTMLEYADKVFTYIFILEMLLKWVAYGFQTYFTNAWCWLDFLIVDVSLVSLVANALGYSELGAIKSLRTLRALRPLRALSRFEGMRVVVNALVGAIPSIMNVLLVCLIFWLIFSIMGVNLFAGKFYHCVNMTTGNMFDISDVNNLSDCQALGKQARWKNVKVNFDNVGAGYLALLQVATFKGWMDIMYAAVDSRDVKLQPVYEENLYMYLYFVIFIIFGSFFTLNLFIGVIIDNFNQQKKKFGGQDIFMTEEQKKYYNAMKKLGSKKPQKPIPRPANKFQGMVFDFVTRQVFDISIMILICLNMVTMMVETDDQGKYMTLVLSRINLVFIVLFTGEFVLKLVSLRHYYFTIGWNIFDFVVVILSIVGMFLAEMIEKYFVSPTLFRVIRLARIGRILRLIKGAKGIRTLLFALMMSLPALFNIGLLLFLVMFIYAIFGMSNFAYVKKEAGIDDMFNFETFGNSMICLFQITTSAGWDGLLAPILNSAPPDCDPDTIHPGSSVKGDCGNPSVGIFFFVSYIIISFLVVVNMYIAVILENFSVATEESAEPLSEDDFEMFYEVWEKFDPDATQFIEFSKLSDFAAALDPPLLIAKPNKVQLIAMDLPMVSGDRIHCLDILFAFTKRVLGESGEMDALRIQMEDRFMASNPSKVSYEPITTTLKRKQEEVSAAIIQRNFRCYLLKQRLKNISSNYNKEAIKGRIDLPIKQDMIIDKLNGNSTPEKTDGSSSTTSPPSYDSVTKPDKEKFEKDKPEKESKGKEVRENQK

SMILES	IC50 [1] [µM]	IC50 [2] [µM]	IC50 [3] [µM]	Nav1.4/Nav1.7 [3]	IC50 [4] [µM]
CC[C@H](C)[C@H](NC(=O)[C@@H](NC(=O)[C@H](CCCCN)NC(=O)[C@H](CCCNC(=N)N)NC(=O)[C@@H]1CSSC[C@@H]2NC(=O)[C@H](C)NC(=O)[C@H](CCCNC(=N)N)NC(=O)[C@H](CCCCN)NC(=O)[C@H](CO)NC(=O)[C@H](CC(=O)O)NC(=O)[C@@H]3CSSC[C@H](NC(=O)[C@H](CCCNC(=N)N)NC(=O)[C@H](CC(C)C)NC(=O)CNC(=O)[C@H](CCC(=O)O)NC(=O)[C@H](CSSC[C@H](NC(=O)[C@@H](N)Cc4ccc(O)cc4)C(=O)N[C@@H](CCCNC(=N)N)C(=O)N[C@@H](CCCCN)C(=O)N[C@@H](Cc4c[nH]c5ccccc45)C(=O)N[C@@H](CCSC)C(=O)N[C@@H](Cc4c[nH]c5ccccc45)C(=O)N[C@@H]([C@@H](C)O)C(=O)N3)NC2=O)C(=O)N[C@@H](CCCCN)C(=O)N[C@@H](CC(C)C)C(=O)N[C@@H](Cc2c[nH]c3ccccc23)C(=O)N1)[C@@H](C)CC)C(N)=O [compound 91]	0.025	3.2	0.14	6	0.06
CC[C@H](C)[C@H](NC(=O)[C@@H](NC(=O)[C@H](CCCCN)NC(=O)[C@H](CCCNC(=N)N)NC(=O)[C@@H]1CSSC[C@@H]2NC(=O)[C@H](C)NC(=O)[C@H](CCCNC(=N)N)NC(=O)[C@H](CCCCN)NC(=O)[C@H](CO)NC(=O)[C@H](CC(=O)O)NC(=O)[C@@H]3CSSC[C@H](NC(=O)[C@H](CCCNC(=N)N)NC(=O)[C@H](CC(C)C)NC(=O)CNC(=O)[C@H](CCC(=O)O)NC(=O)[C@H](CSSC[C@H](NC(=O)[C@@H](N)Cc4ccc(O)cc4)C(=O)N[C@@H](CCC(N)=O)C(=O)N[C@@H](CCCCN)C(=O)N[C@@H](Cc4c[nH]c5ccccc45)C(=O)N[C@@H](CCSC)C(=O)N[C@@H](Cc4c[nH]c5ccccc45)C(=O)N[C@@H](C)C(=O)N3)NC2=O)C(=O)N[C@@H](CCCCN)C(=O)N[C@@H](CC(C)C)C(=O)N[C@@H](Cc2c[nH]c3ccccc23)C(=O)N1)[C@@H](C)CC)C(N)=O [compound 9]	0.025	> 5	0.25	10	0.21
CC[C@H](C)[C@H](NC(=O)[C@H](CCCCN)NC(=O)[C@H](CCCNC(=N)N)NC(=O)[C@@H]1CSSC[C@@H]2NC(=O)[C@H](C)NC(=O)[C@H](CCCNC(=N)N)NC(=O)[C@H](CCCCN)NC(=O)[C@H](CO)NC(=O)[C@H](CC(=O)O)NC(=O)[C@@H]3CSSC[C@H](NC(=O)[C@H](CCCNC(=N)N)NC(=O)[C@H](CC(C)C)NC(=O)CNC(=O)[C@H](CCC(=O)O)NC(=O)[C@H](CSSC[C@H](NC(=O)[C@@H](N)Cc4ccc(O)cc4)C(=O)N[C@@H](CCC(N)=O)C(=O)N[C@@H](CCCCN)C(=O)N[C@@H](Cc4c[nH]c5ccccc45)C(=O)N[C@@H](CCSC)C(=O)N[C@@H](Cc4c[nH]c5ccccc45)C(=O)N[C@@H]([C@@H](C)O)C(=O)N3)NC2=O)C(=O)N[C@@H](CCCCN)C(=O)N[C@@H](CC(C)C)C(=O)N[C@@H](Cc2c[nH]c3ccccc23)C(=O)N1)C(=O)N[C@@H](CCCCN)C(N)=O [compound 89]	0.11	> 5	1.3	11	2.4
CC[C@H](C)[C@H](NC(=O)[C@@H](NC(=O)[C@H](CCCCN)NC(=O)[C@H](CCCNC(=N)N)NC(=O)[C@@H]1CSSC[C@@H]2NC(=O)[C@H](C)NC(=O)[C@H](CCCNC(=N)N)NC(=O)[C@H](CCCCN)NC(=O)[C@H](CO)NC(=O)[C@H](CC(=O)O)NC(=O)[C@@H]3CSSC[C@H](NC(=O)[C@H](CCCNC(=N)N)NC(=O)[C@H](CC(C)C)NC(=O)CNC(=O)[C@H](CCC(=O)O)NC(=O)[C@H](CSSC[C@H](NC(=O)[C@@H](N)Cc4ccc(O)cc4)C(=O)N[C@@H](CCC(N)=O)C(=O)N[C@@H](CCCCN)C(=O)N[C@@H](Cc4c[nH]c5ccccc45)C(=O)N[C@@H](CCSC)C(=O)N[C@@H](Cc4c[nH]c5ccccc45)C(=O)N[C@@H]([C@@H](C)O)C(=O)N3)NC2=O)C(=O)N[C@@H](CCCCN)C(=O)N[C@@H](CC(C)C)C(=O)N[C@@H](Cc2cccc3ccccc23)C(=O)N1)[C@@H](C)CC)C(N)=O [compound 43]	0.075	> 5	0.33	4	0.46
CC[C@H](C)[C@H](NC(=O)[C@@H](NC(=O)[C@H](CCCCN)NC(=O)[C@H](CCCNC(=N)N)NC(=O)[C@@H]1CSSC[C@@H]2NC(=O)[C@H](C)NC(=O)[C@H](CCCNC(=N)N)NC(=O)[C@H](CCCCN)NC(=O)[C@H](CO)NC(=O)[C@H](CC(=O)O)NC(=O)[C@@H]3CSSC[C@H](NC(=O)[C@H](CCCNC(=N)N)NC(=O)[C@H](CC(C)C)NC(=O)CNC(=O)[C@H](CCC(=O)O)NC(=O)[C@H](CSSC[C@H](NC(=O)[C@@H](N)Cc4ccc(O)cc4)C(=O)N[C@@H](CCC(N)=O)C(=O)N[C@@H](CCCCN)C(=O)N[C@@H](Cc4c[nH]c5ccccc45)C(=O)N[C@@H](CCSC)C(=O)N[C@@H](CCCNC(=N)N)C(=O)N[C@@H]([C@@H](C)O)C(=O)N3)NC2=O)C(=O)N[C@@H](CCCCN)C(=O)N[C@@H](CC(C)C)C(=O)N[C@@H](Cc2c[nH]c3ccccc23)C(=O)N1)[C@@H](C)CC)C(N)=O [compound 95]	0.053	> 5	0.4	8	0.08
CC[C@H](C)[C@H](NC(=O)[C@@H](NC(=O)[C@H](CCCCN)NC(=O)[C@H](CCCNC(=N)N)NC(=O)[C@@H]1CSSC[C@@H]2NC(=O)[C@H](C)NC(=O)[C@H](CCCCN)NC(=O)[C@H](CCCCN)NC(=O)[C@H](CO)NC(=O)[C@H](CC(=O)O)NC(=O)[C@@H]3CSSC[C@H](NC(=O)[C@H](CCCNC(=N)N)NC(=O)[C@H](CC(C)C)NC(=O)CNC(=O)[C@H](CCC(=O)O)NC(=O)[C@H](CSSC[C@H](NC(=O)[C@@H](N)Cc4ccc(O)cc4)C(=O)N[C@@H](CCC(N)=O)C(=O)N[C@@H](CCCCN)C(=O)N[C@@H](Cc4c[nH]c5ccccc45)C(=O)N[C@@H](CCSC)C(=O)N[C@@H](Cc4c[nH]c5ccccc45)C(=O)N[C@@H]([C@@H](C)O)C(=O)N3)NC2=O)C(=O)N[C@@H](CCCCN)C(=O)N[C@@H](CC(C)C)C(=O)N[C@@H](Cc2c[nH]c3ccccc23)C(=O)N1)[C@@H](C)CC)C(N)=O [compound 79]	0.064	> 5	0.47	7	0.12
CC[C@H](C)[C@H](NC(=O)[C@H](CCCCN)NC(=O)[C@H](CCCNC(=N)N)NC(=O)[C@@H]1CSSC[C@@H]2NC(=O)[C@H](C)NC(=O)[C@H](CCCNC(=N)N)NC(=O)[C@H](CCCCN)NC(=O)[C@H](CO)NC(=O)[C@H](CC(=O)O)NC(=O)[C@@H]3CSSC[C@H](NC(=O)[C@H](CCCNC(=N)N)NC(=O)[C@H](CC(C)C)NC(=O)CNC(=O)[C@H](CCC(=O)O)NC(=O)[C@H](CSSC[C@H](NC(=O)[C@@H](N)Cc4ccc(O)cc4)C(=O)N[C@@H](CCC(N)=O)C(=O)N[C@@H](CCCCN)C(=O)N[C@@H](Cc4c[nH]c5ccccc45)C(=O)N[C@@H](CCSC)C(=O)N[C@@H](Cc4c[nH]c5ccccc45)C(=O)N[C@@H]([C@@H](C)O)C(=O)N3)NC2=O)C(=O)N[C@@H](CCCCN)C(=O)N[C@@H](CC(C)C)C(=O)N[C@@H](Cc2c[nH]c3ccccc23)C(=O)N1)C(=O)N[C@@H](CCCNC(=N)N)C(N)=O [compound 109]	0.067	> 5	1.1	16	1.3
CC[C@H](C)[C@H](NC(=O)[C@@H](NC(=O)[C@H](CCCCN)NC(=O)[C@H](CCCNC(=N)N)NC(=O)[C@@H]1CSSC[C@@H]2NC(=O)[C@H](C)NC(=O)[C@H](CCCNC(=N)N)NC(=O)[C@H](CCCCN)NC(=O)[C@H](CO)NC(=O)[C@H](CC(=O)O)NC(=O)[C@@H]3CSSC[C@H](NC(=O)[C@H](CCCNC(=N)N)NC(=O)[C@H](CC(C)C)NC(=O)CNC(=O)[C@H](CCC(=O)O)NC(=O)[C@H](CSSC[C@H](NC(=O)[C@@H](N)Cc4ccc(O)cc4)C(=O)N[C@@H](CCC(N)=O)C(=O)N[C@@H](CCCCN)C(=O)N[C@@H](Cc4c[nH]c5ccccc45)C(=O)N[C@@H](CCSC)C(=O)N[C@@H](Cc4c[nH]c5ccccc45)C(=O)N[C@@H]([C@@H](C)O)C(=O)N3)NC2=O)C(=O)N[C@@H](C)C(=O)N[C@@H](CC(C)C)C(=O)N[C@@H](Cc2c[nH]c3ccccc23)C(=O)N1)[C@@H](C)CC)C(N)=O [compound 18]	0.062	> 5	0.41	7	0.52
CC[C@H](C)[C@H](NC(=O)[C@@H](NC(=O)[C@H](CCCCN)NC(=O)[C@H](CCCNC(=N)N)NC(=O)[C@@H]1CSSC[C@@H]2NC(=O)[C@H](C)NC(=O)[C@H](CCCNC(=N)N)NC(=O)[C@H](CCCCN)NC(=O)[C@H](CO)NC(=O)[C@H](CC(=O)O)NC(=O)[C@@H]3CSSC[C@H](NC(=O)[C@H](CCCNC(=N)N)NC(=O)[C@H](CC(C)C)NC(=O)CNC(=O)[C@H](CCC(=O)O)NC(=O)[C@H](CSSC[C@H](NC(=O)[C@@H](N)Cc4ccc(O)cc4)C(=O)N[C@@H](CCC(N)=O)C(=O)N[C@@H](CCCNC(=N)N)C(=O)N[C@@H](Cc4c[nH]c5ccccc45)C(=O)N[C@@H](CCSC)C(=O)N[C@@H](Cc4c[nH]c5ccccc45)C(=O)N[C@@H]([C@@H](C)O)C(=O)N3)NC2=O)C(=O)N[C@@H](CCCCN)C(=O)N[C@@H](CC(C)C)C(=O)N[C@@H](Cc2c[nH]c3ccccc23)C(=O)N1)[C@@H](C)CC)C(N)=O [compound 92]	0.014	2	0.16	11	0.07
